Results taken from patent US7442713B2, “2-thio-substituted imidazole derivatives and their use in pharmaceutics” (Merckle GmbH, priority 2002, dated 2008).

Columns and labels:
IL-1β = experiment: In vitro test of cytokine release, LPS-stimulated human whole blood / PBMCs: IL-1β; format: cell-based; settings: PBMC, LPS stimulation, ELISA, read-out: Cytokines IC50 IL-1β
Method: (§1) The compounds or compositions according to the invention can be administered to mammals (man or animal) in a dose of from about 0.5 mg to 100 mg per kg of body weight per day. They may be administered in one individual dose or in a plurality of doses. The activity spectrum of the compounds as inhibitors of cytokine release was examined using the test systems below, as described by C. Donat and S. Laufer in Arch. Pharm. Pharm. Med. Chem. 333, Suppl. 1, 1-40, 2000.
(§2) In vitro Test with Human Whole Blood
(§3) The test substance is added to samples of human potassium-EDTA whole blood (of 400 μl each) and the samples are preincubated in a CO2 incubator (5% CO2; 95% moisture-saturated air) at 37° C. for 15 min. The samples are then stimulated with 1 μg/ml of LPS (E. coli 026:B6) at 37° C. in a CO2 incubator (5% CO2; 95% moisture-saturated air) for 4 hours. The reaction is stopped by placing the samples on ice, adding DPBS buffer and then centrifuging at 1000*g for 15 min. The amount of IL-1β and TNFα in the plasma supernatant is then determined by ELISA.
(§4) 1) The mononuclear cells (PBMCs) from human potassium-EDTA whole blood, diluted 1:3, are isolated by density gradient centrifugation (Histopaque®-1.077). The cells are washed twice with DPBS buffer, resuspended in macrophage SFM medium and adjusted to a cell count of 1*10^6 cells/ml.
(§5) The resulting PBMCs suspension (samples of in each case 390 μl) and the test substance are preincubated at 37° C. in a CO2 incubator (5% CO2; 95% moisture-saturated air) for 15 min. The samples are then stimulated with in each case […] of LPS (E. coli 026:B6) at 37° C. in a CO2 incubator (5% CO2; 95% moisture-saturated air) for 4 hours. The reaction is stopped by placing the samples on ice, adding DPBS buffer and then centrifuging at 15 880*g for 12 min. The amount of IL-1β and TNFα in the plasma supernatant is then determined by ELISA.

TNFα = experiment: In vitro test of cytokine release, LPS-stimulated human whole blood / PBMCs: TNFα; format: cell-based; settings: LPS stimulation, ELISA; for IC50: Homo sapiens, PBMC, read-out: Cytokines IC50 TNF α
Method: as §1, §2, §3, §4, §5

activated p38α = activated p38α (Homo sapiens, UniProt Q16539); experiment: Kinase assay (p38α, ATF2 substrate, ELISA read-out); format: biochemical; settings: Table 1; for IC50: 100 μM ATP, 10 ng activated p38α, read-out: Kinase assay IC50
Sequence of activated p38α (Q16539 whole entry): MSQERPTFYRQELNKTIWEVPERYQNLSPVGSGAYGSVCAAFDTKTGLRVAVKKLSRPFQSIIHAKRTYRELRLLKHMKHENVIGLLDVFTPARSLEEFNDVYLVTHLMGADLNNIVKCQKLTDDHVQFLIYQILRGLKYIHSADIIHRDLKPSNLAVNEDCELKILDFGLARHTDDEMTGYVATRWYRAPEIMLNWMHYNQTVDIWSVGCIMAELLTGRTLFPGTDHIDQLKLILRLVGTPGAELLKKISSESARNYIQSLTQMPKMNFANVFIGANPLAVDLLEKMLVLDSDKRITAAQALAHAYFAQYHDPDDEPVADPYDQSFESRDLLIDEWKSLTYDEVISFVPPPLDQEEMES
Method: At 37° C., microtiter plates were coated with 50 μl of ATF2 solution ([…]) for one hour. The plates were washed three times with water, and 50 μl of kinase mixture (50 mM tris-HCl, 10 mM MgCl2, 10 mM β-glycerol phosphate, 10 μg/ml BSA, 1 mM DTT, 100 μM ATP, 100 μM Na3VO4, 10 ng of activated p38α) with or without inhibitor were then added into the wells, and the plates were incubated at 37° C. for 1 hour. The plates were washed three times and then incubated at 37° C. with phosphorus-ATF-2 antibodies for one hour. Once more, the plates were washed three times, and goat-anti-rabbit IgG labeled with alkaline phosphatase was then added at 37° C. for one hour (to immobilize antibody-phosphorylated protein-substrate complex). After washing three times, the alkaline phosphatase-substrate solution (3 mM 4-NPP, 50 mM NaHCO3, 50 mM MgCl2, 100 μl/well) was added at 37° C. for 1.5 hours. The formation of 4-nitrophenolate was measured at 405 nm using a microtiter plate reader. The IC50 values were calculated.

COC(=O)CCCCSc1nc(-c2ccc(F)cc2)c(-c2ccncc2)[nH]1 [Example 25, Methyl 5-(4-fluorophenyl)-4-(4-pyridinyl)imidazole-2-thio-5-valerate]
IC50 (IL-1β): 1450 nM | Cytokines TNF α % at 10^−5 mol/l (TNFα): 28% at10^−5 mol/l

COC(=O)/C=C/CSc1nc(-c2ccc(F)cc2)c(-c2ccncc2)[nH]1 [Example 25b, Methyl 5-(4-fluorophenyl)-4-(4-pyridinyl)imidazole-2-thio-4-crotonate]
IC50 (IL-1β): 650 nM | IC50 (TNFα): 1100 nM

O=C1OCCC1Sc1nc(-c2ccc(F)cc2)c(-c2ccncc2)[nH]1 (centres unmarked) [Example 23, 5-(4-Fluorophenyl)-4-(4-pyridinyl)imidazole-2-thio-3-butyrolactone]
IC50 (IL-1β): 190 nM | IC50 (TNFα): 3800 nM

CN(C)C(=O)CSc1nc(-c2ccc(F)cc2)c(-c2ccncc2)n1C [Example 27, 1-[4-(4-Fluorophenyl)-1-methyl-5-pyridin-4-yl-1H-imidazol-2-ylsulfanyl]-N,N-dimethylacetamide]
Kinase assay % at 10^−5 mol/l (activated p38α; at 10^−5 mol/l): 29.0% at10^−5 mol/l | IC50 (IL-1β): 150 nM | IC50 (TNFα): 3000 nM

CCOC(=O)C(Sc1nc(-c2ccc(F)cc2)c(-c2ccncc2)[nH]1)C(=O)OCC [Example 22, Diethyl 5-(4-fluorophenyl)-4-(4-pyridinyl)imidazole-2-thio-2-malonate]
IC50 (IL-1β): 540 nM | IC50 (TNFα): 360 nM

OCC(O)CSc1nc(-c2ccc(F)cc2)c(-c2ccncc2)[nH]1 (centres unmarked) [Example 21, 5-(4-Fluorophenyl)-4-(4-pyridinyl)imidazole-2-thio-1-propane-2,3-diol]
IC50 (IL-1β): 150 nM | IC50 (TNFα): 900 nM

COC(=O)CCCSc1nc(-c2ccc(F)cc2)c(-c2ccncc2)[nH]1 [Example 25a, Methyl 5-(4-fluorophenyl)-4-(4-pyridinyl)imidazole-2-thio-4-butyrate]
IC50 (IL-1β): 750 nM | Cytokines TNF α % at 10^−5 mol/l (TNFα): 38% at10^−5 mol/l

COC(=O)CSc1nc(-c2ccc(F)cc2)c(-c2ccncc2)[nH]1 [Example 25c, Methyl 5-(4-fluorophenyl)-4-(4-pyridinyl)imidazole-2-thio-2-acetate]
IC50 (activated p38α): 750 nM | IC50 (IL-1β): 320 nM | IC50 (TNFα): 2100 nM

CCOC(=O)CSc1nc(-c2ccc(F)cc2)c(-c2ccncc2)[nH]1 [Example 25e, Ethyl 5-(4-fluorophenyl)-4-(4-pyridinyl)imidazole-2-thio-2-acetate]
IC50 (activated p38α): 975 nM | IC50 (IL-1β): 700 nM | IC50 (TNFα): 9500 nM

O=C(O)C(CCO)Sc1nc(-c2ccc(F)cc2)c(-c2ccncc2)[nH]1 (centres unmarked) [Example 24, 5-(4-Fluorophenyl)-4-(4-pyridinyl)imidazole-2-thio-2-butanoic acid-4-ol]
IC50 (IL-1β): 140 nM | IC50 (TNFα): 3800 nM
